# According to US10980798B2, “Pharmaceutical compositions of hydrophobic camptothecin derivatives” (Taiwan Liposome Company, Ltd., priority 2011, dated 2021):
# What was measured:
# [1] = Aqueous solubility with mPEG2000-DSPE formulation; type: physicochemical; details: water with mPEG2000-DSPE formulation, aqueous with cosolvent or surfactant or cyclodextrin
# Protocol: In addition, the aqueous solubility of […] increased to 10 mg/mL with mPEG2000-DSPE formulation.
# [2] = stated as known; cited from earlier work
# [3] = tested on: HT29; assay: SRB cytotoxicity assay, HT29 (colon cancer); type: cell-based; details: Homo sapiens, HT-29; HT29, incubation 72 h
# Protocol: (§1) The SRB assay was used for measuring cancer cell viability. The cancer cells in the plate wells were rinsed with 1× PBS and treated with 1× trypsin-EDTA (Invitrogen, Carlsbad, Calif.). The culture medium was added to dilute the trypsin-EDTA. The detached cancer cells were harvested by centrifugation and suspended in the 1 ml culture medium. Ten μl of the cell suspension was dispensed into counting chambers and the cell density was determined microscopically. The cells in 198 μl suspensions were seeded onto a 96-well cell plate (Nunc, Rochester, N.Y.) at the appropriate cell density per well and incubated in the cell culture incubator overnight.
# (§2) We evaluated the ant-cancer activity of the following CPT derivatives pharmaceutical compositions: • 1. TLC388 HCl, a non-water soluble CPT derivative (obtained from ScinoPharm Taiwan Ltd., Taiwan); • 2. […]
# (§3) At the end of the incubation period, cells were fixed by adding 50 μl of cold 50% TCA (w/v) (Sigma, St Louis, Mo., USA) to a final concentration of 10% TCA and further incubated at 4° C. for 60 minutes. […] Bound stain in each well was solubilized with 100 μl of 10 mM trizma base (Bioshop, Burlington, ON, Canada), and the absorbance was measured using an automated plate reader (Anthos 2001, Anthos Labtec Instrument) at 540 nm.
# (§4) The graph and data were analyzed by SigmaPlot 10.0 software and Microsoft Excel 2002.
# [4] = tested on: Hep3B; assay: SRB cytotoxicity assay, Hep3B; type: cell-based; details: Homo sapiens
# Excerpt: (§5) Human hepatoma cell lines Hep3B, HepG2, HepG2/2.2.15, Huh-7 and Sk-Hep-1, human glioblastoma cell line RG-2, and human prostate cancer cell line DU145 were maintained in DMEM (HyClone Laboratories, Logan, Utah, USA). Human prostate cancer cell line LNCap was maintained in RPMI-1640 culture medium (Sigma-Aldrich, St. Louis, Mo., USA). […] Human prostate cancer cell line PC-3 was maintained in the Ham's F-12K medium (Invitrogen, Carlsbad, Calif., USA) with the same medium supplements described in the culture medium except that the fetal bovine serum concentration was reduced to 7% by volume. Cancer cells were maintained at 37° C. in a humidified incubator (Nuaire, USA) containing 5% CO2.
# as §1, §2, §3, §4
# [5] = tested on: HepG2/2.2.15; assay: SRB cytotoxicity assay, HepG2/2.2.15; type: cell-based; details: Homo sapiens
# Excerpt: as §5, §1, §2, §3, §4
# [6] = tested on: PC-3; assay: SRB cytotoxicity assay, PC-3; type: cell-based; details: Homo sapiens
# Excerpt: as §5, §1, §2, §3, §4
# [7] = tested on: erythroid Colony Forming Cells (CFCs); assay: Bone marrow suppression evaluation, colony assay, erythroid progenitors; type: cell-based; details: human bone marrow progenitors, methylcellulose colony assay, 14-16 days
# Protocol: (§6) An in vitro evaluation of the effect of the pharmaceutical compositions on human bone marrow cells was performed.
# (§7) Protocol: Clonogenic progenitors of the erythroid (CFU-E, BFU-E), granulocyte-monocyte (CFU-GM) and multipotential lineages (CFU-GEMM) were set up in methylcellulose-based medium (R&D Systems) containing recombinant rhSCF (50 ng/mL), rhIL-3 (10 ng/mL), rhGM-CSF (10 ng/mL),and rhEpo (3 U/mL).
# (§8) TLC388 HCl and Topotecan were diluted in DMSO and Lipotecan® was diluted in sterile water to provide the appropriate working stock concentrations. These working stock solutions were subsequently added to the methylcellulose-based colony assay medium described above. The colony assay mediums were set up in triplicate at 2×10^4 cells per culture medium.
# (§9) The replicate culture mediums were incubated at 37° C. in 5% CO2 for 14-16 days. After this time, the resultant colonies in the culture medium were evaluated by a senior scientist in term of size and morphology.
# [8] = tested on: HepG2; assay: SRB cytotoxicity assay, HepG2; type: cell-based; details: Homo sapiens
# Excerpt: as §5, §1, §2, §3, §4
# [9] = tested on: myeloid CFCs; assay: Bone marrow suppression evaluation, colony assay, myeloid progenitors; type: cell-based; details: human bone marrow progenitors, methylcellulose colony assay, 14-16 days
# Protocol: as §6, §7, §8, §9
# [10] = tested on: Huh-7; assay: SRB cytotoxicity assay, Huh-7; type: cell-based; details: Homo sapiens
# Excerpt: as §5, §1, §2, §3, §4
# [11] = tested on: DU145; assay: SRB cytotoxicity assay, DU145; type: cell-based; details: Homo sapiens, DU-145
# Excerpt: as §5, §1, §2, §3, §4
# [12] = tested on: LNCap; assay: SRB cytotoxicity assay, LNCap; type: cell-based; details: Homo sapiens
# Excerpt: as §5, §1, §2, §3, §4
# [13] = tested on: Sk-Hep-1; assay: SRB cytotoxicity assay, Sk-Hep-1; type: cell-based; details: Homo sapiens, SK-HEP1
# Excerpt: as §5, §1, §2, §3, §4
# [14] = tested on: HCT116; assay: SRB cytotoxicity assay, HCT116 (colon cancer); type: cell-based; details: Homo sapiens, HCT-116; HCT116, incubation 72 h
# Protocol: as §1, §2, §3, §4
# [15] = tested on: RG-2; assay: SRB cytotoxicity assay, RG-2 glioma cell line; type: cell-based; details: Homo sapiens, RG2
# Excerpt: as §5, §1, §2, §3, §4
compound,measurement,setting,value
"CC[C@@]1(OC(=O)C(C)(C)ON=C2c3cc([N+](=O)[O-])cc([N+](=O)[O-])c3-c3c2cc([N+](=O)[O-])cc3[N+](=O)[O-])C(=O)OCc2c1cc1n(c2=O)Cc2cc3c(CN(C)C)c(O)ccc3nc2-1.Cl [TLC1988 HCl, (S)-10-[(dimethylamino)methyl]-4-ethyl-9-hydroxy-4-O-[2-methyl-2-(2″,4″,5″,7″-tetranitro-9″-fluorenylideneaminooxy)propionyl]-1H-pyrano[3′,4′:6,7]indolizino[1,2-b]quinoline-3,14-(4H,12H)-dione, monohydrochloride]",solubility,[1],10000 µg/mL
same,stability in an alkaline condition,[2],unstable in an alkaline condition
CC[C@@]1(O)C(=O)OCc2c1cc1n(c2=O)Cc2cc3c(CN(C)C)c(O)ccc3nc2-1 [Topotecan],IC50,[3],38 nM
same,IC50,[4]; incubation 24 h,> 50000 nM
same,IC50,[4]; incubation 48 h,64600 nM
same,IC50,[4]; incubation 72 h,200 nM
same,IC50,"[5]; HepG2/2.2.15, incubation 24 h",> 50000 nM
same,IC50,"[5]; HepG2/2.2.15, incubation 48 h",63100 nM
same,IC50,"[5]; HepG2/2.2.15, incubation 72 h",580 nM
same,IC50,"[6]; PC-3, incubation 24 h",131000 nM
same,IC50,"[6]; PC-3, incubation 48 h",18100 nM
same,IC50,"[6]; PC-3, incubation 72 h",3580 nM
same,IC50,[7],11.8 nM
same,IC50,"[8]; HepG2, incubation 24 h",57400 nM
same,IC50,"[8]; HepG2, incubation 48 h",2730 nM
same,IC50,"[8]; HepG2, incubation 72 h",686 nM
same,IC50,[9],8.7 nM
same,IC50,"[10]; Huh-7, incubation 24 h",65300 nM
same,IC50,"[10]; Huh-7, incubation 48 h",5050 nM
same,IC50,"[10]; Huh-7, incubation 72 h",2800 nM
same,IC50,"[11]; DU145, incubation 24 h",2250 nM
same,IC50,"[11]; DU145, incubation 48 h",600 nM
same,IC50,"[11]; DU145, incubation 72 h",580 nM
same,IC50,[12]; incubation 24 h,14900 nM
same,IC50,[12]; incubation 48 h,6150 nM
same,IC50,[12]; incubation 72 h,2590 nM
same,IC50,"[13]; Sk-Hep-1, incubation 24 h",74900 nM
same,IC50,"[13]; Sk-Hep-1, incubation 48 h",12500 nM
same,IC50,"[13]; Sk-Hep-1, incubation 72 h",2100 nM
same,IC50,[14],8 nM
same,IC50,"[15]; RG-2, incubation 24 h",7230 nM
same,IC50,"[15]; RG-2, incubation 48 h",2780 nM
same,IC50,"[15]; RG-2, incubation 72 h",3000 nM
